Laboratory results as given in ChEMBL document CHEMBL1154301, “A naturally occurring brominated furanone covalently modifies and inactivates LuxS” (Bioorg Med Chem Lett, 2009).
Activity calls are given as the source filed them. The rule behind the calls is not given here.

Assays:
[1] = biological target: T1, S-ribosylhomocysteine lyase (Escherichia coli K-12) (UniProt P45578); assay: Inhibition of Escherichia coli LuxS using S-ribosyl-homocysteine substrate at pH 7 after 10 mins by fluorimetric assay
T1 sequence (whole entry): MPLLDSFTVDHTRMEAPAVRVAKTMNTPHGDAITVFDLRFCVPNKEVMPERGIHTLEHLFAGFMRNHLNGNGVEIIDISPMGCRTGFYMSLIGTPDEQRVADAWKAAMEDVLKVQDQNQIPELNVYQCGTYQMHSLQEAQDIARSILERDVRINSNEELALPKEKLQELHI

[2] = biological target: T1, S-ribosylhomocysteine lyase (Escherichia coli K-12); assay: Inhibition of Escherichia coli LuxS assessed as induction of Cys126 alkylation by MALDI-MS method
[3] = biological target: T1, S-ribosylhomocysteine lyase (Escherichia coli K-12); assay: Inhibition of Escherichia coli LuxS assessed as formation of enzyme-adduct formation by mass spectrometry
[4] = biological target: T1, S-ribosylhomocysteine lyase (Escherichia coli K-12); assay: Inhibition of Escherichia coli LuxS using variable levels of S-ribosyl-homocysteine substrate at pH 7 after 10 mins by fluorimetric assay
[5] = biological target: T1, S-ribosylhomocysteine lyase (Escherichia coli K-12); assay: Inhibition of Escherichia coli LuxS using variable levels of S-ribosyl-homocysteine substrate by UV/Vis absorbance spectroscopy; conditions: TDE = time-dependent effect
[6] = biological target: T1, S-ribosylhomocysteine lyase (Escherichia coli K-12); assay: Inhibition of Escherichia coli LuxS assessed as induction of covalent modification by UV/Vis absorbance spectroscopy

| inhibition [1] | inhibition [2] | inhibition [3] | inhibition [4] | inhibition [5] | inhibition [6] | Structure (SMILES) |
| --- | --- | --- | --- | --- | --- | --- |
| Active | – | – | – | – | – | CCCCC1=CC(=C(Br)Br)OC1=O |
| Active | – | – | – | – | – | O=C1C=CC(=C(Br)Br)O1 |
| Dose-dependent effect | – | – | – | – | – | O=C1C=C/C(=C/Br)O1 |
| Dose-dependent effect | Active | Active | Active | tde | Active | CCCCC1=C(Br)/C(=C/Br)OC1=O |
